# Source: PubChem BioAssay AID2060512 (Molecular Pharmacology Branch, DTP, NCI, 2025)
# Test system: 186277-243-T-J2-PDC complex spheroid viability
# Test: Anticancer human tumor 186277-243-T-J2-PDC patient-derived colon adenocarcinoma cell line growth inhibition [GQUAD]
# Details: for IC50: curve of first compound; for viability, T/C: stronger effect = lower value
# Source text: DNA G-quadruplex Stabilizer Agents in Combinations in Complex Spheroids
# A high-throughput screen of multi-cell type tumor spheroids was designed to identify active combinations of DNA G-quadruplex stabilizer agents and targeted small molecules. Complex spheroids include a stromal component modeled by human endothelial cells (HUVEC) and fibroblasts modeled by human mesenchymal stem cells (MSCs). The concentration ranges selected for each drug and investigational agent were based upon clinically achievable concentrations if the clinical Cmax of the agent was known.
# Compounds. The drugs and investigational agents: pidnarulex (CX-5461; NSC782164), APTO-253 (NSC789042), BRACO-19 (NSC847499), peposertib (NSC802822), ceralasertib (NSC780249), elimusertib (NSC800525), camonsertib (NSC841442), AZD-1390 (NSC803789), olaparib (NSC753686), talazoparib (NSC767125), ART-558 (NSC835418), sotorasib (NSC818433), MRTX-1133 (NSC836407), SN-38 (NSC673596), topotecan (NSC609699), etoposide (NSC141540), doxorubicin (NSC123127), gemcitabine (NSC613327), 5-fluorouracil (NSC19893), paclitaxel (NSC125973), vemurafenib (NSC761431), panobinostat (NSC761190), R-306465 (JNJ-16241199; NSC773264), adavosertib (NSC754352), TP-3654 (NSC805149), carboplatin (NSC241240), KSQ-4279 (NSC840948), and staurosporine (NSC755774) were obtained from the National Cancer Institute (NCI) Developmental Therapeutics Program Chemical Repository (34). The FDA-approved anticancer drug set is available from the NCI Developmental Therapeutics Program. […] The stock solutions were prepared in dimethyl sulfoxide (DMSO, Sigma-Aldrich, St. Louis, MO, cat. D2650) at 800-fold the tested concentration and stored at -70 degrees C prior to their use. All drugs and investigational agents were tested over a range starting from a high concentration at or near the clinical Cmax and decreasing in half-log increments. If the clinical Cmax for an agent had not been determined, the highest concentration tested was 10 microM.
# 2.3 Cell Culture. All cells were maintained in an incubator at 37 degrees C and 5% CO2 with 95% humidity. The PDC lines were cultured according to standard operating procedures established by the NCI PDMR. All PDCs were thawed and cultured in Matrigel-coated flasks prepared with a working solution of 1X Ham's F-12 nutrient mix, without supplementation (Invitrogen, cat. 11765054), 100 U/mL penicillin-streptomycin (Invitrogen, cat. 15140122), and 2.5% Matrigel (Corning Inc., cat. 354248) for the first three passages. The 857933-349-R-J2-PDC line was cultured in 6C/Colon 1B media, which includes advanced DMEM/F-12 (Thermo Fisher Scientific, cat. 12634028), 10 mM HEPES (Thermo Fisher Scientific, cat. 15630080), 1X GlutaMAX supplement (Thermo Fisher Scientific, cat. 35050061), 0.1 mg/mL primocin (InvivoGen, cat. ant-pm-2), 10% defined fetal bovine serum, heat inactivated (HyClone Laboratories Inc., cat. SH30070.03HI), 50% L-WRN conditioned media (ATCC, cat. CRL-3276), 1.25 mM N-Acetyl-L-cysteine (Sigma-Aldrich, cat. A9165), 10 mM nicotinamide (Sigma-Aldrich, cat. N0636), 1X B-27 supplement (Thermo Fisher Scientific, cat. 17504044), 1X N-2 supplement (Thermo Fisher Scientific, cat. 17502048), 10 microM Y-27632 dihydrochloride (Tocris Bioscience, cat. 1254), and 50 ng/mL human EGF recombinant protein (Thermo Fisher Scientific, cat. PHG0311). The 485176-168-R4-J1-PDC line was cultured in Panc media, which includes all 6C/Colon 1B media components plus 100 ng/mL human FGF-10 (Thermo Fisher Scientific, cat. 100-26), 500 nM SB-431542 (Selleckchem, cat. S1067), and gastrin (Tocris, cat. 3006).
# […]
# [1] = second compound 0.0316 µM, first compound 0.0316 µM
# [2] = second compound 0.0316 µM, first compound 0.1 µM
# [3] = second compound 0.0316 µM, first compound 0.316 µM
# [4] = second compound 0.0316 µM, first compound 1 µM
# [5] = second compound 0.0316 µM, first compound 3.16 µM
# [6] = second compound 0.0316 µM, first compound 10 µM
# [7] = second compound 0.1 µM, first compound 0.0316 µM
# [8] = second compound 0.1 µM, first compound 0.1 µM
# [9] = second compound 0.1 µM, first compound 0.316 µM
# [10] = second compound 0.1 µM, first compound 1 µM
# [11] = second compound 0.1 µM, first compound 3.16 µM
# [12] = second compound 0.1 µM, first compound 10 µM
# [13] = second compound 0.316 µM, first compound 0.0316 µM
# [14] = second compound 0.316 µM, first compound 0.1 µM
# [15] = second compound 0.316 µM, first compound 0.316 µM
# [16] = second compound 0.316 µM, first compound 1 µM
# [17] = second compound 0.316 µM, first compound 3.16 µM
# [18] = second compound 0.316 µM, first compound 10 µM
# [19] = second compound 1 µM, first compound 0.0316 µM
# [20] = second compound 1 µM, first compound 0.1 µM
# [21] = second compound 1 µM, first compound 0.316 µM
# [22] = second compound 1 µM, first compound 1 µM
# [23] = second compound 1 µM, first compound 3.16 µM
# [24] = second compound 1 µM, first compound 10 µM
# [25] = second compound 3.16 µM, first compound 0.0316 µM
# [26] = second compound 3.16 µM, first compound 0.1 µM
# [27] = second compound 3.16 µM, first compound 0.316 µM
# [28] = second compound 3.16 µM, first compound 1 µM
# [29] = second compound 3.16 µM, first compound 3.16 µM
# [30] = second compound 3.16 µM, first compound 10 µM
# [31] = second compound 10 µM, first compound 0.0316 µM
# [32] = second compound 10 µM, first compound 0.1 µM
# [33] = second compound 10 µM, first compound 0.316 µM
# [34] = second compound 10 µM, first compound 1 µM
# [35] = second compound 10 µM, first compound 3.16 µM
# [36] = second compound 10 µM, first compound 10 µM
# 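Further: spheroids exposed to drugs for 7 days.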
# 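Wherever viability, T/C is given: 100% = DMSO vehicle control viability.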
structure (smiles),measurement,setting,value
COc1ncnc(C2CC2)c1-c1ncc2cnn(Cc3ccc(-c4nc(C(F)(F)F)cn4C(C)C)cc3)c2n1 + Cc1[nH]c2ccc(F)cc2c1-c1nc2c3cccnc3c3ncccc3c2[nH]1,IC50,second compound 0.0316 µM,> 10000 nM
same,IC50,second compound 0.1 µM,> 10000 nM
same,IC50,second compound 0.316 µM,> 10000 nM
same,IC50,second compound 1 µM,> 10000 nM
same,IC50,second compound 3.16 µM,> 10000 nM
same,IC50,second compound 10 µM,> 10000 nM
same,"viability, T/C",[1],116%
same,"viability, T/C",[2],91.6%
same,"viability, T/C",[3],95.1%
same,"viability, T/C",[4],84.4%
same,"viability, T/C",[5],111%
same,"viability, T/C",[6],97.4%
same,"viability, T/C",[7],87.5%
same,"viability, T/C",[8],98.7%
same,"viability, T/C",[9],99.8%
same,"viability, T/C",[10],95.2%
same,"viability, T/C",[11],112%
same,"viability, T/C",[12],86.2%
same,"viability, T/C",[13],104%
same,"viability, T/C",[14],95.7%
same,"viability, T/C",[15],94.2%
same,"viability, T/C",[16],111%
same,"viability, T/C",[17],108%
same,"viability, T/C",[18],96%
same,"viability, T/C",[19],92.5%
same,"viability, T/C",[20],105%
same,"viability, T/C",[21],107%
same,"viability, T/C",[22],93.9%
same,"viability, T/C",[23],116%
same,"viability, T/C",[24],104%
same,"viability, T/C",[25],103%
same,"viability, T/C",[26],115%
same,"viability, T/C",[27],97.3%
same,"viability, T/C",[28],102%
same,"viability, T/C",[29],99.9%
same,"viability, T/C",[30],89.9%
same,"viability, T/C",[31],105%
same,"viability, T/C",[32],101%
same,"viability, T/C",[33],99.1%
same,"viability, T/C",[34],94.4%
same,"viability, T/C",[35],113%
same,"viability, T/C",[36],97%
COc1ccc([C@@H](O)c2cc(-c3ncnc4cc(N5CCOCC5)ccc34)c(F)cc2Cl)nn1 + Cc1cnc(CNC(=O)c2c(=O)c3ccc(N4CCCN(C)CC4)nc3n3c2sc2ccccc23)cn1,IC50,second compound 0.0316 µM,1880 nM
same,IC50,second compound 0.1 µM,1370 nM
same,IC50,second compound 0.316 µM,708 nM
same,IC50,second compound 1 µM,397 nM
same,IC50,second compound 3.16 µM,129 nM
same,IC50,second compound 10 µM,< 31.6 nM
same,"viability, T/C",[1],94.7%
same,"viability, T/C",[2],100%
same,"viability, T/C",[3],97.5%
same,"viability, T/C",[4],59%
same,"viability, T/C",[5],42.5%
same,"viability, T/C",[6],17.5%
same,"viability, T/C",[7],86.7%
same,"viability, T/C",[8],81.3%
same,"viability, T/C",[9],69.9%
same,"viability, T/C",[10],56.6%
same,"viability, T/C",[11],34.8%
same,"viability, T/C",[12],14.3%
same,"viability, T/C",[13],72.3%
same,"viability, T/C",[14],67%
same,"viability, T/C",[15],60.4%
same,"viability, T/C",[16],42.8%
same,"viability, T/C",[17],32.3%
same,"viability, T/C",[18],7.31%
same,"viability, T/C",[19],55.5%
same,"viability, T/C",[20],61.1%
same,"viability, T/C",[21],55.8%
same,"viability, T/C",[22],34.9%
same,"viability, T/C",[23],23.5%
same,"viability, T/C",[24],6.14%
same,"viability, T/C",[25],57.2%
same,"viability, T/C",[26],49.1%
same,"viability, T/C",[27],45.6%
same,"viability, T/C",[28],34.2%
same,"viability, T/C",[29],26.6%
same,"viability, T/C",[30],5.25%
same,"viability, T/C",[31],46.4%
same,"viability, T/C",[32],42.2%
same,"viability, T/C",[33],45%
same,"viability, T/C",[34],34.5%
same,"viability, T/C",[35],22.2%
same,"viability, T/C",[36],4.67%
